Laboratory results as given in publication PMC7734798 (ACS Medicinal Chemistry Letters, 2020).
Values joined by “and” are separate entries in the source; they are usually repeats but may differ in a detail not shown here. Identical values can stand only once. “Also recorded” adds a separate entry of the source. Like-named read-outs stand apart in the source and are kept apart here.

How the values were obtained:
[1] = PAMPA-BBB permeation assay; settings: for Papp at 100 µM: PAMPA, pH 7.4; for BBB penetration estimation, CNS (+/−): PAMPA-BBB prediction
N9 microglial cells = experiment: Nitrites measurement (Griess reaction) in medium of LPS-treated N9 microglial cells; format: cell-based, mouse; settings: 100 ng/mL LPS, 6 h pretreatment + 24 h
From the text: (§1) Microglia, essential regulators of neuroinflammatory processes, can be polarized to two distinct activation states: M1 and M2. M1 microglia have proinflammatory, neurotoxic properties and are modeled in vitro through lipopolysaccharides (LPS) activation. Alternatively, M2 microglia are involved in anti-inflammatory processes, contributing to trophic support of neurons and neuroprotective functions. A marked microglial activation with high expression levels of proinflammatory genes is found in MS lesions.[23] Conversely, the neuroprotective effects of the MS drug glatiramer are mediated by activated M2 microglia.[24] To this end, we evaluated whether 1 and 2 modulate microglial shift from an M1 neurotoxic phenotype to an M2 neuroprotective one. […] After pretreatment for 6 h and administration for a further 24 h, the microglial phenotype was evaluated through Western blot analysis of the M1-iNOS (inducible Nitric Oxide Synthase) and M2-TREM2 (Triggering Receptor Expressed on Myeloid cells 2) markers (Figure 6). We also assessed nitrite production, due to iNOS induction, in the incubation media. […]
medium/well and treated with increasing concentrations of the compounds (0.5, 1, 5 and 10 μM), in serum-free DMEM for 24 hours. After 24 hours, the viability was evaluated through the MTT assay. […]

[2] = system: human liver carcinoma immortalized cell line (HepG2); settings: for cell survival/death in HepG2 cells, % mean ± SE of controls (MTT): 24 h treatment; for hepatotoxicity in HepG2 (in words): even at the higher tested concentrations
TREM2 = experiment: Immunomodulation assay: TREM2 (M2 marker) expression in LPS-treated N9 microglial cells (Western blot); format: cell-based, mouse; settings: 100 ng/mL LPS, 6 h pretreatment + 24 h
From the text: as §1
(§2) Nitrite accumulation in cell media was assayed by the Griess reaction. […] Absorbance was read at 540 nm using a plate reader after 15 min of incubation at room […]
(§3) After 24 hours, the viability was evaluated through the MTT assay. […]

Oli-Neu cells = experiment: Oli-Neu cell proliferation and differentiation assay: cell counting and measure of filaments; format: cell-based, mouse; settings: 5 μM, 48 h
From the text: OPC proliferation and migration to the CNS injury site as well as their differentiation are critical steps toward remyelination in MS. HDAC activity plays a crucial role in OPC proliferation/differentiation; therefore, HDAC modulation is widely considered a promising therapeutic target for MS.[30] […] Therefore, we tested the effect of our compounds on OPC proliferation and differentiation, through cell counting, measure of filaments, and analysis of proliferation/differentiation markers (Figure 7).
Oli-Neu cells were grown in SATO medium (DMEM medium, 2 mM glutamine, 10 μg/ml insulin, 5.5 μg/ml transferrin, 38.72 nM sodium selenite, 100 µM putrescine, 520 nM L-thyroxine (T4), 500 nM triiodo-L-thyronine (T3), 200 nM progesterone, 25 μg/ml of gentamycin) supplemented with 1% heat-inactivated horse serum (HS) in a humidified, 5% CO2 incubator at 37°C. Cell culture medium and all chemicals were from Sigma-Aldrich, except for insulin-transferrin-sodium selenite 100X supplement (Life Technologies Corporation). Cells were plated on 96 well plates, previously coated with 10 μg/mL poly-L-lysine (Sigma-Aldrich; 10 μg/ml) at the density of 2.5 x 10 4/0.2 mL medium/well and treated with increasing concentrations of the compounds (0.5, 1, 5 and 10 μM). […]
Oli-Neu cells proliferation and differentiation assay
48 hours, for cell counting and measure of filaments, 5 random images for each condition were acquired with an Eclipse TS100 (Nikon) microscope using a 10X objective. Cells number and filament length were measured with Fiji ImageJ2 software. […]

iNOS = experiment: Immunomodulation assay: iNOS (M1 marker) expression in LPS-treated N9 microglial cells (Western blot); format: cell-based, mouse; settings: 100 ng/mL LPS, 6 h pretreatment + 24 h, even at 0.5 μM
From the text: as §1, §2, §3

SMILES | Papp at 100 µM [1] | BBB penetration estimation, CNS (+/−) [1] | levels of nitrites in incubation medium (N9 microglial cells) | cell survival/death in HepG2 cells, % mean ± SE of controls (MTT) ([2]; 5 μM) | cell survival/death in HepG2 cells, % mean ± SE of controls (MTT) ([2]; 10 μM) | cell survival/death in HepG2 cells, % mean ± SE of controls (MTT) ([2]; 25 μM) | cell survival/death in HepG2 cells, % mean ± SE of controls (MTT) ([2]; 50 μM) | hepatotoxicity in HepG2 (in words) [2] | expression of TREM2 (M2 marker) (TREM2) | Oli-Neu cell number (Oli-Neu cells) | Oli-Neu filament length (Oli-Neu cells) | microglia production of M1 proinflammatory marker iNOS (iNOS)
CC/C=C\C/C=C\C/C=C\CCCCCCCC(=O)NCCOC(=O)C(CCC)CCC [compound 2] | 14.6 ± 1.61 ×10⁻⁶ cm/s | BBB-permeable; also recorded: CNS + | reduced their concentration more effectively than VPA | 102 ± 10% | 104 ± 4% | 84 ± 6% and > 80% | 80 ± 9% | low hepatotoxicity | unchanged expression | decrease cell number | parallel increase in filament length | significantly decrease
CC/C=C\C/C=C\C/C=C\CCCCCCCC(=O)NCCNC(=O)C(CCC)CCC [compound 1] | 28 ± 5.3 ×10⁻⁶ cm/s | high BBB permeability; also recorded: CNS + | reduced their concentration more effectively than VPA | 87 ± 13% | 93 ± 5% | 81 ± 10% and > 80% | 64 ± 8% | low hepatotoxicity | unchanged expression | decrease cell number | parallel increase in filament length | significantly decrease
